{"source": "patent US20180104336A1", "about": "“Method of Increasing Radiation Sensitivity of Tumor Cells” (priority 2016, published 2018)", "key": {"A549 cells [1]": {"test_system": "A549 cells", "experiment": "GSHE experiment: cell viability and toxicity with 10 μM BPTES", "protocol": "(§1) [^13C5]-glutamine experiments: To determine the fraction of glutathione that is derived directly from glutamine, A549 and H460 cell lines were cultured in 96-well plates in glutamine-free medium supplemented with 0.3 g/L [^13C5]-glutamine. Cell media aliquots were harvested at 12, 24, 36, and 48 hrs. Light microscopy was used at 12 hours to visualize the cells at each dosage. After 48 hours the CellTiter 96, CellTiter-Glo® 2.0, and CellTox™ Green Cytotoxicity assays, (Promega, Madison, Wis.) were utilized to respectively assess cell proliferation, cell viability, and cell death of both the BPTES and [^13C5]-glutamine experiments.\n(§2) Glutathione-monoethyl ester (GSHE) experiments: Cells (7500) were seeded into 96 well plates containing 100 μl complete media. Cells were treated with 10 μM BPTES in DMSO and 0, 1, 5 and 10 mM GSHE. After 48 hrs cells were harvested and cell viability and toxicity were assessed as described above."}, "H460 cells [2]": {"test_system": "H460 cells", "experiment": "GSHE experiment: cell viability and toxicity with 10 μM BPTES", "protocol": "as §1, §2"}, "[3]": {"test_system": "H460 and A549 lung tumor cells", "experiment": "Glutathione synthesis and excretion after GLS inhibition, cell lines not separated", "assay_type": "cell-based, human", "settings": "for fold more effective in depletion of glutathione: compared with 100 to 10,000 μM buthionine sulfoximine reported previously; for glutathione synthesis and excretion: in vitro", "protocol": "GLS inhibition experiments: In the mechanistic experiments with BPTES or CB-839, cells (7500) were seeded (Time—24 hrs) into 96-well plates containing 100 μl complete medium, and allowed to attach for 24 hrs. […] Media aliquots of 25 μl were removed from each well at 24, 36, and 48 hrs to monitor the time course of metabolite consumption and production (metabolomic footprint). Cells were maintained at 37° C., 5% CO2 and 40% humidity until time of harvest. Cell viability was determined using Cell Glow, Cell TOX or MTT assays according to manufacture descriptions.\nLC-MS quantitation by liquid chromatography tandem mass spectrometry (LC-MS/MS): Metabolites were extracted from cell pellets by the addition of 3 ml of 50% methanol/0.2% formic acid to the frozen cells in the culture flasks. Cells were scraped from the culture flasks and transferred to 15 ml tubes. Proteins were precipitated from 750 μl cell pellet suspensions by addition of 1050 μl acetonitrile/0.2% formic acid. Metabolites were extracted from 25 or 100 μl culture media from 96 well plates or 25-T flasks, respectively, and with the respective addition of 275 μl or 1300 μl of 40% methanol/60% acetonitrile/0.2% formic acid. Cell pellets or media suspensions were incubated on ice for 30 min, followed by centrifugation for 10 min at 13000 g. Supernatants were transferred to new vials, solvents were removed in a speed vac and the concentrated metabolites stored at -80° C. until analysis.\nSamples were reconstituted in 0.2% formic acid and analyzed by LC-MS/MS (Agilent, 1290 Infinity LC coupled to an Agilent 6490 triple quadrupole mass analyzer). An Agilent Poroshell 2.7 μm C18 (2.1 mm×100 mm) column was operated with a linear gradient from 2% Methanol/0.01% formic acid to 95% Methanol/0.01% formic acid in 10 min. Individual metabolites were monitored in multiple reactions monitoring mode, monitoring specific ion transitions shown in Table 1. The specific ion transitions and retention times for each metabolite were established experimentally using commercially available standard compounds. Quantitation of the individual metabolites were based on external calibration curves that were generated with each set of samples. In the stable isotope tracing experiment, ^13C5-incorporation into subsequent metabolites was determined by monitoring the corresponding m/z ion transitions (Table 1)."}, "A549 cells [4]": {"test_system": "A549 cells", "experiment": "Radiation sensitivity by clonogenic assay", "assay_type": "cell-based, human", "settings": "2 μM BPTES 24 h, 4 Gy and 8 Gy, p<0.001", "protocol": "(§3) Radiation exposure of lung tumor cell lines: Radiation sensitivity was determined by methods described previously. In brief, for colony formation, A549 and H460 cells were seeded in 6-well plates containing 3 ml standard complete medium and allowed to attach for 24 h. Media were changed and cells were grown for another 24 h in standard medium, glutamine-free medium, medium containing 2 μM BPTES (to deplete glutathione), and medium containing only the vehicle. Cells were subsequently radiated using a Faxitron X-ray Generating System (CP-160, Faxitron X-Ray Corp., Wheeling, Ill.). Single-doses of 4 or 8 Gy (Gray) were delivered at a dose rate of 1 Gy/min (150 kVp and 6.6 mA). Cells were then placed in standard complete RPMI medium and allowed to form colonies for 8 days. The surviving colonies (containing >˜50 cells) were stained and counted on a stereomicroscope. Plating efficiency (PE) of cells with each treatment were determined and normalized to that of control untreated cells and the surviving fractions were calculated by dividing the PE of the treated cells by the PE of the control untreated cells."}, "H460 cells [5]": {"test_system": "H460 cells", "experiment": "Radiation sensitivity by clonogenic assay", "assay_type": "cell-based, human", "settings": "2 μM BPTES 24 h, 4 Gy and 8 Gy, p<0.001", "protocol": "as §3"}, "A549 cells [6]": {"test_system": "A549 cells", "experiment": "GLS inhibition experiment, bright field images of cell death", "assay_type": "cell-based, human", "settings": "10, 20, 40 and 100 μM, 48 hrs", "protocol": "(§4) GLS inhibition experiments: In the mechanistic experiments with BPTES or CB-839, cells (7500) were seeded (Time—24 hrs) into 96-well plates containing 100 μl complete medium, and allowed to attach for 24 hrs. Complete medium was added (Time 0 hrs) containing various concentrations of GLS inhibitors to give the final concentrations of 0.001 to 100 μM. Media aliquots of 25 μl were removed from each well at 24, 36, and 48 hrs to monitor the time course of metabolite consumption and production (metabolomic footprint). Cells were maintained at 37° C., 5% CO2 and 40% humidity until time of harvest. Cell viability was determined using Cell Glow, Cell TOX or MTT assays according to manufacture descriptions."}, "H460 cells [7]": {"test_system": "H460 cells", "experiment": "GLS inhibition experiment, bright field images of cell death", "assay_type": "cell-based, human", "settings": "10, 20, 40 and 100 μM, 48 hrs", "protocol": "as §4"}, "[8]": {"test_system": "H460 and A549 lung tumor cells", "assay_type": "cell-based", "settings": "for cell proliferation and viability: FIG. 4 and FIG. 8", "protocol": "Media aliquots of 25 μl were removed from each well at 24, 36, and 48 hrs to monitor the time course of metabolite consumption and production (metabolomic footprint). Cells were maintained at 37° C., 5% CO2 and 40% humidity until time of harvest. Cell viability was determined using Cell Glow, Cell TOX or MTT assays according to manufacture descriptions.\nCells were seed in 6-well and allowed to attach for 1 day.\nas §1, §3"}, "H460 cell-derived tumors": {"test_system": "H460 cell-derived tumors", "experiment": "H460 mouse xenograft, tumor volume with and without radiation", "assay_type": "in vivo, nude mice", "from_the_text": "METHOD: Mouse xenograft experiments. For the first in vivo study, H460 cell-derived tumors were engrafted on the hind flank of 20 male. […] (1) control (2) CB-839, (3) 18 Gy radiation and (4) CB-839 plus 18 Gy radiation. For the second in vivo experiment, H460 cell-derived tumors were engrafted on the hind flank of 50 female nude mice. […] (1) Vehicle only, (2) 2 Gy radiation, (3) 4 Gy radiation, (4) 8 Gy radiation, (5) 12 Gy radiation, (6) Vehicle only plus CB-839, (7) 2 Gy radiation plus CB-839, (8) 4 Gy radiation plus CB-839, (9) […], (10) 12 Gy radiation plus CB-839. CB-839 was given three times at 20 mg/kg by oral gavage at 28, 16 and 4 hrs prior to a single dose of 18 Gy radiation. CB-839 was administered by oral gavage as solution of 200 mg/kg CB-839 in 200 ul 25% (w/v) hydroxypropyl-b-cyclodextrin in 10 mmol/[…], pH 2 or 25% (w/v) hydroxypropyl- b-cyclodextrin in 10 mmol/L citrate, pH 2. Thirty minutes prior to radiation treatment, 50 μl blood was taken form tail vein and serum was analyzed for reduced and oxidized GSH by LC-MS. Radiation was given as a single 1Gy/min dose for 2, 4, 8, 12, or 18 min respectively. Tumor volume measurements were repeated at the indicated days until termination of the animals. Tumor volume was computed by multiplying “a” times (“a” X “b”)/2. The “Mean tumor volumes” and “Relative tumor volume” for male and female mice are graphed in FIGS. 9A-B and FIGS. 10A-F, respectively."}, "[9]": {"test_system": "total glutathione in serum", "experiment": "Total glutathione (reduced plus oxidized) in serum by LC-MS at day of radiation", "assay_type": "in vivo, nude mice", "protocol": "CB-839 was given three times at 20 mg/kg by oral gavage at 28, 16 and 4 hrs prior to a single dose of 18 Gy radiation. CB-839 was administered by oral gavage as solution of 200 mg/kg CB-839 in 200 ul 25% (w/v) hydroxypropyl-b-cyclodextrin in 10 mmol/Lcitrate, pH 2 or 25% (w/v) hydroxypropyl- b-cyclodextrin in 10 mmol/L citrate, pH 2. Thirty minutes prior to radiation treatment, 50 μl blood was taken form tail vein and serum was analyzed for reduced and oxidized GSH by LC-MS. Radiation was given as a single 1Gy/min dose for 2, 4, 8, 12, or 18 min respectively. Tumor volume measurements were repeated at the indicated days until termination of the animals. Tumor volume was computed by multiplying “a” times (“a” X “b”)/2. The “Mean tumor volumes” and “Relative tumor volume” for male and female mice are graphed in FIGS. 9A-B and FIGS. 10A-F, respectively."}, "[10]": {"settings": "male nude mice, day #17, CB-839 20 mg/kg oral gavage 28, 16 and 4 hrs before 18 Gy"}}, "note": "Entries after “also recorded” stand apart in the source; their conditions may differ.", "data": [{"smiles": "CCOC(=O)CNC(=O)[C@H](CS)NC(=O)CC[C@H](N)C(=O)O", "note": "[GSHE, Glutathione-monoethyl ester]", "values": [{"measurement": "protection against BPTES-induced cytotoxicity", "setting": "A549 cells [1]; 1-10 mM GSHE with 10 μM BPTES", "result": "dose-dependent protection"}, {"measurement": "protection against BPTES-induced cytotoxicity", "setting": "H460 cells [2]; 1-10 mM GSHE with 10 μM BPTES", "result": "dose-dependent protection"}]}, {"smiles": "O=C(Cc1ccccc1)Nc1nnc(CCSCCc2nnc(NC(=O)Cc3ccccc3)s2)s1", "note": "[BPTES, Bis-2-(5-phenyl-acetamido-1,3,4-thiadiazol-2-yl) ethyl sulfide]", "values": [{"measurement": "concentration at which glutathione excretion was essentially abolished", "setting": "[3]; FIG. 4, H460 and A549", "result": "> 5", "unit": "µM"}, {"measurement": "fold more effective in depletion of glutathione", "setting": "[3]", "result": "≥ 100", "unit": "fold"}, {"measurement": "glutathione synthesis and excretion", "setting": "[3]", "result": "abolished glutathione excretion"}, {"measurement": "cell viability", "setting": "A549 cells [1]; 10 μM BPTES, 48 hrs", "result": "reduced viability"}, {"measurement": "cell viability", "setting": "H460 cells [2]; 10 μM BPTES, 48 hrs", "result": "reduced viability"}, {"measurement": "radiation response, colony formation compared to control cells", "setting": "A549 cells [4]", "result": "radiation-induced reduction in colony formation"}, {"measurement": "radiation response, colony formation compared to control cells", "setting": "H460 cells [5]", "result": "radiation-induced reduction in colony formation"}, {"measurement": "cell death, visual", "setting": "A549 cells [6]", "result": "visual increase in cell death"}, {"measurement": "cell death, visual", "setting": "H460 cells [7]", "result": "visual increase in cell death"}, {"measurement": "cell proliferation and viability", "setting": "[8]", "result": "reduced cell proliferation and viability"}, {"measurement": "cell growth", "setting": "[8]; FIGS. 4A-4C", "result": "significant growth inhibition"}]}, {"smiles": "O=C(Cc1cccc(OC(F)(F)F)c1)Nc1ccc(CCCCc2nnc(NC(=O)Cc3ccccn3)s2)nn1", "note": "[CB-839]", "values": [{"measurement": "fold more effective in depletion of glutathione", "setting": "[3]", "result": "at least 1000 fold"}, {"measurement": "glutathione synthesis and excretion", "setting": "[3]", "result": "successfully depletes glutathione synthesis and excretion; also recorded: abolished glutathione excretion"}, {"measurement": "cell proliferation and viability", "setting": "[8]", "result": "reduced cell proliferation and viability"}, {"measurement": "sensitivity to ionizing radiation in vitro", "setting": "[8]; in vitro", "result": "increase sensitivity to ionizing radiation"}, {"measurement": "response to radiation treatment improved, based on tumor volume over time", "setting": "H460 cell-derived tumors; H460 xenograft, short term (3 times) CB-839", "result": "more than 25%"}, {"measurement": "efficacy of short term CB-839 alone", "setting": "H460 cell-derived tumors; H460 xenograft, short term (3 times) CB-839, no radiation", "result": "does not show efficacy"}, {"measurement": "tumor growth, CB-839 alone", "setting": "H460 cell-derived tumors; female nude mice, 3 doses orally every 12 hrs", "result": "did not affect the tumor growth"}, {"measurement": "accelerated tumor growth caused by 2 Gy radiation", "setting": "H460 cell-derived tumors; female nude mice, CB-839 plus 2 Gy", "result": "prevented"}, {"measurement": "mean tumor size smaller, CB-839 plus radiation compared to CB-839 alone", "setting": "H460 cell-derived tumors; [10]", "result": 90, "unit": "%"}, {"measurement": "mean tumor size smaller, CB-839 plus radiation compared to radiation alone", "setting": "H460 cell-derived tumors; [10]", "result": 20, "unit": "%"}, {"measurement": "tumor growth, CB-839 alone compared to control", "setting": "H460 cell-derived tumors; male nude mice, three CB-839 treatments", "result": "did not affect subsequent tumor growth"}, {"measurement": "total glutathione in blood lower", "setting": "[9]; female nude mice, time of radiation, three doses of 200 mg/Kg/bw at 28, 16 and 4 hrs earlier", "result": 53, "unit": "%"}, {"measurement": "serum glutathione reduced", "setting": "[9]; in vivo, short term treatment", "result": "> 50", "unit": "%"}, {"measurement": "total GSH in serum lower compared to none treated mice", "setting": "[9]; male nude mice, day #12 prior to radiation, CB-839 three times", "result": 56, "unit": "%"}]}]}
